Results taken from PMC12064818, “A general assay platform to study protein pharmacology using ligand-dependent structural dynamics” (Nature Communications, 2025).

molecular target: T1, FLuc-C-HiBiT (Photinus pyralis, UniProt P08659); assay: biochemical; conditions: enzyme activity, 10 uM ATP; read-out: IC50 or SDR50 (mM) / FLuc E
T1 construct: firefly luciferase with C-terminal HiBiT tag, E. coli expressed
T1 sequence (P08659 whole entry, looked up): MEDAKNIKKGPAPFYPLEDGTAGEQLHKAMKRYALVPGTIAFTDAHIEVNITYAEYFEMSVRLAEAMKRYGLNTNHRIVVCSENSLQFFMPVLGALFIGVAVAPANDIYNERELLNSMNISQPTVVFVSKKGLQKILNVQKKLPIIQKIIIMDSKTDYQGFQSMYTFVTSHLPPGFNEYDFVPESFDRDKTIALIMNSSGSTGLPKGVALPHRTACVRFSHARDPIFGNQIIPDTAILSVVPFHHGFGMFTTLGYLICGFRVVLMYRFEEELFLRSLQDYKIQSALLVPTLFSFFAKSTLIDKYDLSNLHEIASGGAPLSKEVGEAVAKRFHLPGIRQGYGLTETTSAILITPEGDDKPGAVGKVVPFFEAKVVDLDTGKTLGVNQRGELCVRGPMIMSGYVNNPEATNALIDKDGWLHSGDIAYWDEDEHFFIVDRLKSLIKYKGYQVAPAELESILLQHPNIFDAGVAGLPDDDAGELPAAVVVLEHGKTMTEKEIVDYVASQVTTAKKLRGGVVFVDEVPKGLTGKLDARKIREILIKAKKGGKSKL

Row | Structure (SMILES) | IC50 [µM]
1 | O=C(O)c1cccc(-c2noc(-c3cccc(C(F)(F)F)c3)n2)c1 [NCGC00168769-01] | 0.0157
2 | O=C(O)c1cccc(-c2noc(-c3ccc(C(F)(F)F)cc3)n2)c1 [NCGC00168770-01] | 0.00351
3 | Nc1ncnc2c1ncn2[C@@H]1O[C@H](CO)[C@@H](O)[C@@H]1O [NCGC00178869-10] | > 30
4 | COC(=O)c1cccc(-c2noc(-c3ccccc3F)n2)c1 [NCGC00183594-01] | 3.51
5 | O=C(O)c1ccccc1-c1noc(-c2ccccc2F)n1 [NCGC00183910-01] | 15.7
6 | Cc1ccc(-c2nc3ccccc3s2)cc1NC(=O)c1ccc(-c2cccc(Cl)c2)o1 [NCGC00187468-01] | > 30
7 | CCOc1ccc(C(=O)Nc2ccc(-c3nc4ccccc4s3)cc2)cc1[N+](=O)[O-] [NCGC00188053-01] | > 30
8 | Oc1cc(-c2nc3ccccc3s2)cc2c1OCCN(Cc1cccn1-c1nccs1)C2 [NCGC00238878-01] | > 30
9 | Cc1cc2c(c(-c3nc4ccccc4s3)c1)OC(CNC(=O)CCc1cccnc1)C2 (centres unmarked) [NCGC00239520-01] | 17.6
10 | Oc1cc(-c2nc3ccccc3s2)cc2c1OCCN(Cc1cccn1-c1ncccn1)C2 [NCGC00239686-01] | > 30
11 | Cc1noc(C)c1CC(=O)N1CCOc2c(cc(-c3nc4ccccc4s3)cc2OC2CCOC2)C1 (centres unmarked) [NCGC00239833-01] | > 30
12 | O=C(c1ccccc1C(F)(F)F)N1CCOc2c(cc(-c3nc4ccccc4s3)cc2OC2CCOC2)C1 (centres unmarked) [NCGC00240022-01] | > 30
13 | c1ccc2sc(-c3cc4c(c(OC5CCOC5)c3)OCCN(Cc3cccn3-c3nccs3)C4)nc2c1 (centres unmarked) [NCGC00240062-01] | > 30
14 | CC(CCc1ccc(O)cc1)N1CCOc2c(O)cc(-c3nc4ccccc4s3)cc2C1 (centres unmarked) [NCGC00240078-01] | > 30
15 | Oc1cc(-c2nc3ccccc3s2)cc2c1OCCN(Cc1cccn1-c1ccccn1)C2 [NCGC00240089-01] | > 30
16 | Oc1cc(-c2nc3ccccc3s2)cc2c1OCCN(Cc1cccn1-c1ccc(Cl)cn1)C2 [NCGC00240283-01] | > 30
17 | COc1ccc(C(=O)NCC2Cc3cc(C)cc(-c4nc5ccccc5s4)c3O2)c(OC)c1OC (centres unmarked) [NCGC00240387-01] | > 30
18 | Cc1cc2c(c(-c3nc4ccccc4s3)c1)OC(CNC(=O)c1occc1C)C2 (centres unmarked) [NCGC00240406-01] | 12.4
19 | Oc1ccc(Cl)cc1CN1CCOc2c(O)cc(-c3nc4ccccc4s3)cc2C1 [NCGC00240488-01] | > 30
20 | Oc1cc(-c2nc3ccccc3s2)cc2c1OCCN(Cc1c[nH]nc1-c1ccc(Cl)cc1)C2 [NCGC00240676-01] | > 30
21 | Cc1c(CN2CCOc3c(O)cc(-c4nc5ccccc5s4)cc3C2)cnn1C [NCGC00240749-01] | > 30
22 | COC(=O)c1ccc2c(c1)C(=Cc1cc(Br)c(O)c(Br)c1)C(=O)N2 [NCGC00242004-02] | 9.89
23 | Cc1ccc(C(=O)NC2CC2)cc1-c1ccc2[nH]ncc2c1 [NCGC00242033-03] | > 30
24 | CN(c1ccc(NC(=O)Nc2ccc(OC(F)(F)F)cc2)cc1)c1ccnc(Nc2cccc([S+](N)(=O)[O-])c2)n1 [NCGC00242042-02] | > 30
25 | COc1cccc(-n2cnc3c(N/N=C/c4ccncc4)ncnc32)c1 [NCGC00242129-02] | 17.6
26 | O=C(Nc1n[nH]c2cc(-c3ccccc3)ccc12)C1CC1 [NCGC00242141-02] | 12.4

Row | Structure (SMILES) | IC50 [µM]
27 | c1ccc(Nc2ncc(-c3ccccc3)o2)cc1 [NCGC00242146-02] | 0.785
28 | O=C1Nc2ccc(C(=O)c3ccco3)cc2C1=Cc1cc(Cl)c(O)c(Cl)c1 [NCGC00242150-05] | 11.1
29 | N[S+](=O)([O-])c1cccc(N/C=C2\C(=O)Nc3ccccc32)c1 [NCGC00242167-02] | > 30
30 | N#Cc1c(NC(=O)c2cccc3ccccc23)sc2c1CCCC2 [NCGC00242227-03] | > 30
31 | O=C(Nc1ccccc1C(=O)O)c1ccccc1 [NCGC00245456-03] | 12.4
32 | O=C(O)c1cccc(-c2noc(-c3cc([N+](=O)[O-])cc([N+](=O)[O-])c3)n2)c1 [NCGC00250195-01] | 3.13
33 | O=C(O)c1cccc(-c2noc(-c3cccc([N+](=O)[O-])c3)n2)c1 [NCGC00253775-01] | 0.007
34 | Nc1ncnc2c1ncn2[C@H]1O[C@H](CO)[C@@H](O)[C@@H]1O [NCGC00262556-01] | > 30
35 | O=C(CSc1ccc(F)cc1)Nc1ccccc1-c1nc2ccccc2s1 [NCGC00274247-01] | > 30
36 | COc1ccc(-c2nc3cc(F)ccc3s2)cc1OC [NCGC00344018-01] | 1.57
37 | O=C(CCC[S+](=O)([O-])c1ccc(Cl)cc1)Nc1ccc(O)c(-c2nc3ccccc3s2)c1 [NCGC00347270-01] | > 30
38 | COc1cccc(-c2nc3cc(NC(=O)c4ccc(C)c([N+](=O)[O-])c4)ccc3s2)c1 [NCGC00348177-01] | > 30
39 | COc1cccc(-c2nc3cc(NC(=O)c4ccc(F)c(C#N)c4)ccc3s2)c1 [NCGC00350766-01] | > 30
40 | COc1ccc(-c2nc3ncccc3[nH]2)cc1 [NCGC00375673-01] | 16
41 | O=C(O)C1CN(Cc2ccc(-c3nc4cc(Cc5ccccc5F)ccc4s3)c(F)c2)C1 [NCGC00379113-01] | > 30
42 | Cc1cc(-c2nc3cc(F)ccc3s2)ccc1NC(=O)[C@@H](N)CCCCN [NCGC00379246-02] | 2.48
43 | CC(C)(Oc1ccc(-c2nc3cc(Cl)ccc3s2)cc1)C(=O)O [NCGC00386771-01] | 8.81
44 | Cc1ccc2nc(-c3ccc4nc(-c5ccc(NC(=O)c6cccc(Cl)c6)cc5)sc4c3)sc2c1[S+](=O)([O-])O [NCGC00386846-01] | 4.42
45 | CCCCNc1nc(N)c2[nH]c(=O)n(Cc3ccc(OCCN(C)C)nc3)c2n1 [NCGC00387452-01] | > 30
46 | Nc1nc(=O)c2[nH]c(=O)n(C3OC(CO)C(O)C3O)c2[nH]1 (centres unmarked) [NCGC00390457-01] | > 30
47 | Nc1nc(=O)c2[nH]c(=O)n(C3CC(O)C(CO)O3)c2[nH]1 (centres unmarked) [NCGC00390462-01] | > 30
48 | COc1cc(-c2nc3ccccc3s2)ccc1O [NCGC00390758-02] | 11.1
49 | O=C(Nc1ccc([C@H]2OCC(=O)N(C3CCOCC3)[C@@H]2CO)cc1)c1ccc(C(F)(F)F)cc1 [NCGC00391115-01] | 12.4
50 | Cc1ccc2[nH]c([C@H]3CCN(C(C)C)C3)nc2c1 [NCGC00391182-01] | 25.4
51 | Fc1ccc2[nH]c([C@H]3CCN(Cc4ccccc4F)C3)nc2c1 [NCGC00391187-01] | 14.3
52 | Cc1ccccc1CN1CC[C@H](c2nc3ccccc3s2)C1 [NCGC00391192-01] | 18

Row | Structure (SMILES) | IC50 [µM]
53 | COCC(=O)Nc1nc2c(s1)C[C@]1(C)CC[C@@H]3[C@H](OC(=O)[C@H]3C)[C@H]1[C@@H]2C [NCGC00391224-01] | 1.61
54 | CC(C)c1ccc(N2C(=S)N[C@H]3[C@@H](O)[C@H](O)C[C@@H](C(=O)N(C)Cc4ccccc4)[C@H]32)cc1 [NCGC00391233-01] | 11.1
55 | Cc1nn(-c2ccc(C(C)C)cc2)c(C)c1[C@@H]1C=C[C@@H](NC(=S)NCC(C)C)C1 [NCGC00391239-01] | 28.6
56 | C[C@@H]1C(=O)O[C@H]2[C@H]1CC[C@@]1(C)Cc3sc(NC(=O)COCC(=O)O)nc3[C@@H](C)[C@H]21 [NCGC00391314-01] | 5.7
57 | C[C@@H]1C(=O)O[C@H]2[C@H]1CC[C@@]1(C)Cc3sc(NCCc4ccccn4)nc3[C@@H](C)[C@H]21 [NCGC00391315-01] | 16.1
58 | C[C@@H]1C(=O)O[C@H]2[C@H]1CC[C@@]1(C)Cc3sc(NCc4ccccc4)nc3[C@@H](C)[C@H]21 [NCGC00391358-01] | 7.18
59 | COCCNC(=O)[C@@H](C)C1CC[C@@]2(C)Cc3sc(CSc4ccccc4)nc3[C@@H](C)[C@@H]2[C@H]1O (some centres unmarked) [NCGC00391430-01] | 11.1
60 | CSCC(=O)N[C@H]1CCN2C(=O)c3cc(-c4ccc(SC)cc4)ccc3NC(=O)[C@H]12 [NCGC00391740-01] | 11.1
61 | COc1ccc(/C=C/c2ccc3c(c2)C(=O)N2CC[C@H](NC(=O)CCC(=O)O)[C@H]2C(=O)N3)cc1 [NCGC00391742-01] | 12.4
62 | O=C(NC[C@H]1Cn2cc(-c3ccc4c(c3)OCCCO4)nc2CO1)c1ccc2c(c1)OCO2 [NCGC00392108-01] | 9.89
63 | O=C([C@@H]1C[C@@H](O)[C@H](O)[C@@H]2NC(=S)N(c3ccc(OC(F)(F)F)cc3)[C@@H]21)N1CCCCC1 [NCGC00392138-01] | > 30
64 | CCNC(=O)N[C@@H]1C=C[C@@H](c2c(C)nn(-c3ccc(F)cc3)c2C)C1 [NCGC00392634-01] | 20.2
65 | O=C1N(c2ccccc2)C[C@H]2CN(Cc3ccccc3)CCN12 [NCGC00393129-01] | 20.2
66 | c1ccc(-c2cn3c(n2)CO[C@@H](CNCc2cccs2)C3)cc1 [NCGC00393328-01] | 20.2
67 | COc1ccc(CN2CCOC[C@H](OCC(=O)N(C)C)C2)cc1 [NCGC00393502-01] | > 30
68 | CSc1ccc(-c2ccc3c(c2)C(=O)N2CC[C@H](NC(=O)c4cccs4)[C@H]2C(=O)N3)cc1 [NCGC00393756-01] | 12.4
69 | CC1=C[C@@H](CNC(=O)c2ccncc2)[C@H](C(C)C)C[C@H]1CC(=O)N1CCOCC1 [NCGC00394503-01] | > 30
70 | CN(C)c1ccc(-c2noc([C@@H]3CCCN3Cc3cnc4ccccc4c3)n2)cn1 [NCGC00394599-01] | > 30
71 | Cc1ccc(-n2nc(C)c([C@H]3C=C[C@@H](O)C3)c2C)cc1Cl [NCGC00394636-01] | 12.8
72 | Cc1nn(-c2ccc(C(C)(C)C)cc2)c(C)c1[C@@H]1C=C[C@@H](NC(=O)c2ccco2)C1 [NCGC00394638-01] | 20.2
73 | COc1ccc(CNC(=O)C[C@@H]2C[C@@H](C(C)C)[C@H](CNC(=O)c3cccnc3)C=C2C)cc1 [NCGC00394780-01] | > 30
74 | Cn1c([C@H]2CCN(C3CCCCC3)C2)nc2ccccc21 [NCGC00394901-01] | 25.4
75 | CC(C)(C)c1ccc(C(=O)Nc2ccc(C(O)[C@H]3COCC(=O)N3Cc3ccccc3)cc2)cc1 (some centres unmarked) [NCGC00394950-01] | > 30
76 | O=C(Nc1ccc([C@H]2OCC(=O)N(Cc3ccncc3)[C@@H]2CO)cc1)c1ccc(C(F)(F)F)cc1 [NCGC00395114-01] | 11.1
77 | O=C(O)COCC(=O)N[C@H]1CCN2C(=O)c3cc(/C=C/c4ccccc4)ccc3NC(=O)[C@H]12 [NCGC00395144-01] | 12.4
